Measurements as given in US7897588B2, “Agents and methods for enhancing bone formation” (The Regents of the University of California, priority 2003, dated 2011).

What was measured:
[1] = test system: M2-10B4 mouse marrow stromal cell line; assay: Alkaline phosphatase (ALP) activity assay in M2 cells; type: cell-based; conditions: for dose and time dependence of induction of alkaline phosphatase activity: concentrations between 0.5-10 μM; for alkaline phosphatase activity: ligands used at 10 μM, control C: 18±2, ±SD; for induction of alkaline phosphatase activity: osteogenic medium, 10 μM oxysterols, 3 days
Protocol: Cells: M2-10B4 mouse marrow stromal cell line obtained from American Type Culture Collection (ATCC, Rockville, Md., U.S.A.) was derived from bone marrow stromal cells of a (C57BL/6J×C3H/HeJ) F1 mouse, and support human and murine myelopoiesis in long-term cultures (as per ATCC) and have the ability to differentiate into osteoblastic and adipocytic cells. Unless specified, these cells were cultured in RPMI 1640 containing 10% heat-inactivated FBS, and supplemented with 1 mM sodium pyruvate, 100 U/ml penicillin, and 100 […] (all from Irvine Scientific).
Alkaline phosphatase activity assay: Colorimetric alkaline phosphatase (ALP) activity assay on whole cell extracts was performed as previously described.
Test 1: M2 cells at confluence were treated with control vehicle (C), or 10 μM oxysterols, in an osteogenic medium consisting of RPMI 1640 to which 10% fetal bovine serum (FBS), 50 μg/ml ascorbate and 3 mM beta-glycerophosphate (βGP) were added. After 3 days of incubation, alkaline phosphatase (ALP) activity was determined in cell homogenates by a colorimetric assay. […] FIG. 3A is a bar graph depicting the effect of various oxysterols on alkaline phosphatase activity in M2 cells.
M2 cells at confluence were treated in osteogenic medium with control vehicle (C) or a combination of 22R and 20S oxysterols, at the indicated concentrations. ALP activity was measured after 3 days as described above. […] FIG. 3B is a bar graph depicting the effect of a combination of oxysterols at various doses on alkaline phosphatase activity in M2 cells.
Test 2: M2 cells were grown in RPMI medium containing 10% fetal bovine serum (FBS). At confluence, the cells were treated in RPMI containing 5% FBS plus ascorbate at 50 μg/ml and β-glycerophosphate at 3 mM to induce osteoblastic differentiation. Adipogenic differentiation was induced by treating the cells in growth medium plus 10 ˜M troglitazone. A vehicle (C) or oxysterol treatment was applied to cells in a variety of doses (in μM): 20S-Hydroxycholesterol, 25-Hydroxycholesterol, 22R-Hydroxycholesterol; 22S-Hydroxycholesterol; 7-ketocholesterol. Cells were always treated at 90% confluence. After 4 days, alkaline phosphatase activity was determined in whole cell lysates and normalized to protein. Alternatively, MSC cultures were prepared and treated with oxysterols as described above. Cells were treated at 90% confluence with the combination of 22R-Hydroxycholesterol and 20S-Hydroxycholesterol, each at 5 uM, for 4 to 96 hours. The oxysterols where removed and fresh media without oxysterols was added for a total duration of 96 hours. Alkaline phosphatase activity was measured in whole cell extracts and normalized to protein.
M2 cells were treated at 90% confluence with vehicle (C), or oxysterols 20S-Hydroxycholesterol or 22S-Hydroxycholesterol at (0.5 μM) or (1 μM), in the absence or presence of cytochrome P450 inhibitor (SKF525A 10 μM (+)). MSC cultures were also treated at 90% confluence with vehicle (C), or 20S-Hydroxycholesterol (2 μM), in the absence or presence of cytochrome P450 […] (Benzylimidazole 50 μM) or SKF525A (10 μM). After 4 days, alkaline phosphatase activity was measured in whole cell extracts and normalized to protein.
Next, a combination of 22R and 20S oxysterols (RS, 2.5 μM each) were added in the presence or absence of SC as indicated. After 3 days, ALP activity was measured as described earlier. […] (B) M2 cells were treated as described in (A) and after 10 days matrix mineralization in cultures was quantified by a ^45Ca incorporation assay as described earlier.

M2 cells = assay: Adipogenesis of troglitazone-treated M2 cells (oil Red O staining, adipocyte count); type: cell-based, mouse; conditions: M2 cells treated with Tro 10 μM, oxysterols 10 μM, 10 days
Protocol: Von Kossa and oil red O staining—Matrix mineralization in cell monolayers was detected by silver nitrate staining as previously described. Oil red O staining for detection of adipocytes was performed as previously described.
Test 1: M2 cells at 90% confluence were treated with vehicle (C), PPAR-γ activator, troglitazone 10 uM (Tro), alone or in combination with 10 μM oxysterols 20S-, 22R-, or 25S-hydroxycholesterol. After 8 days, adipocytes were identified by oil Red 0 staining and quantified by counting under a phase contrast microscope. FIG. 6A is a bar graph depicting the effect of oxysterols on reducing adipogenesis of MSC.
Test 2: (A) M2 cells at confluence were treated in RPMI containing 10% FBS with control vehicle or 10 μM troglitazone (Tro) in the absence or presence of 10 μM 20S or 22S oxysterols. After 10 days, adipocytes were visualized by oil Red O staining and quantified by light microscopy, shown in (B). Data from a representative of four experiments are shown, reported as the mean SD of quadruplicate determinations (p<0.001 for Tro vs. Tro+20S and Tro+22S). (C) M2 cells were treated at confluence with 10 μM Tro, alone or in combination with 10 μM 20S oxysterol. After 10 days, total RNA was isolated and analyzed for lipoprotein lipase (LPL), adipocyte P2 gene (aP2) or 18S rRNA expression by Northern blotting as described (Ref). Data from densitometric analysis of the Northern blot is shown in (D) as the average of duplicate samples, normalized to 18S rRNA.

Row | SMILES | dose and time dependence of induction of alkaline phosphatase activity [1] | alkaline phosphatase activity [1] [activity units/mg protein] | induction of alkaline phosphatase activity [1] | inhibition of adipogenesis (M2 cells) | effect on alkaline phosphatase activity ([1]; TO at 1-10 μM)
1 | CC(C)CCC[C@](C)(O)[C@H]1CC[C@H]2[C@@H]3CC=C4C[C@@H](O)CC[C@]4(C)[C@H]3CC[C@@]21C [20S, 20(S)-hydroxycholesterol] | dose- and time-dependent | 140±12 | induced | inhibited adipogenesis | 
2 | CC(C)CC[C@H](O)[C@@H](C)[C@H]1CC[C@H]2[C@@H]3CC=C4C[C@@H](O)CC[C@]4(C)[C@H]3CC[C@]12C [22S, 22(S)-hydroxycholesterol] | dose- and time-dependent |  | induced | inhibited adipogenesis | 
3 | CC(C)CC[C@@H](O)[C@@H](C)[C@H]1CC[C@H]2[C@@H]3CC=C4C[C@@H](O)CC[C@]4(C)[C@H]3CC[C@]12C [22R, 22(R)-hydroxycholesterol] | dose- and time-dependent | 45±5 | induced | inhibited adipogenesis | 
4 | O=S(=O)(c1ccccc1)N(CC(F)(F)F)c1ccc(C(O)(C(F)(F)F)C(F)(F)F)cc1 [TO, TO-901317] |  | 3±0.5 |  |  | dose-dependent inhibition
